Target: T1, human recombinant CYP2A6 (Homo sapiens, UniProt P11509)
T1 construct: purchased
T1 sequence (P11509 1-494): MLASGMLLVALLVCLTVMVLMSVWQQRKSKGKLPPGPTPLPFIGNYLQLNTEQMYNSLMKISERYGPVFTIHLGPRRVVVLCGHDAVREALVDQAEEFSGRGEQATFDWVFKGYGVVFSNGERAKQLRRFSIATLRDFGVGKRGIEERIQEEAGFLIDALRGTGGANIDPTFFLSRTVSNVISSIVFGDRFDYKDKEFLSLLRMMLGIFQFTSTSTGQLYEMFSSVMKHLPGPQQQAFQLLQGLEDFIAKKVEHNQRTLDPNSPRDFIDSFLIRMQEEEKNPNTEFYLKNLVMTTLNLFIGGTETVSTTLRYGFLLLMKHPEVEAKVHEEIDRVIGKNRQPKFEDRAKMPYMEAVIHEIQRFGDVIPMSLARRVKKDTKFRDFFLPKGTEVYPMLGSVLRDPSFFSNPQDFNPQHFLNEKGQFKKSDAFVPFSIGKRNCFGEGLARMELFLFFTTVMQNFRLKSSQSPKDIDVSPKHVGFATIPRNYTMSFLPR
Test: Inhibition of nicotine metabolism in CYP2A6 Supersomes
Assay type: biochemical
Conditions: 0, 1 and 100 μM; nicotine 100 μM, 15 minutes at 37° C.
Protocol: Samples containing 0, 5, 50, or 500 μM of GSE or Capsule were prepared as described in Example 4. Each sample was incubated with CYP2A6 Supersomes (human recombinant CYP2A6 in an artificial system comprising requisite factors for sample stability and function), with 20 pmol/ml nicotine at 100 μM, for 15 minutes at 37° C.
Sample containing 0, 1 and 100 μM of cytisine, a nicotine agonist, were prepared by extraction in ddH2O pH 4.1, for 2 hours at room temperature with continuous vortexing. The extraction was done at a concentration of 47 mg/ml. The samples were incubated with CYP2A6 Supersomes with 20 pmmol/ml of nicotine at 100 μM for 15 minutes at 37° C.

## O=c1cccc2n1C[C@@H]1CNC[C@H]2C1 [cytisine]
  inhibitory effect in CYP2A6 Supersomes (FIG. 7): does not have an inhibitory effect
